Measurements published in patent publication US20260137807A1, “COMPOSITIONS AND METHODS FOR DELIVERING A MACROMOLECULE TO A CELL” (AstraZeneca AB, priority 2022, published 2026).

How the values were obtained:
Assay type in all cases: cell-based
N2A_Luc705 cells = experiment: Splice switching activity assay, 24 hr SMC treatment, Examples 4C/4D; conditions: 2.5 μM compound, 1 μM SSO, FIG. 27
Experimental: (§1) U2OS_Luc705 and N2A_Luc705 cells were seeded in 96-well plates at 10,000 cells per well in growth media with 1 μM Luc705-SSO. The various SMCs were diluted directly into prepared growth media. After 24 hr to allow adherence and SSO internalization, 10 μl of diluted SMC was added into each well at indicated concentrations. For a positive control, SSOs were complexed with Lipofectamine 2000 for 30 min at RT and cells treated with a final concentration of 200 nM. ON concentrations above 200 nM would require LF2000 to be used in excess of the cells' toxicity threshold. After 24 hr treatment, cells were lysed with 0.1% TritonX-100 (Sigma Aldrich, cat no. X100) in 1× PBS (Gibco, cat no. 10010023).
(§2) For the detection of luciferase activity, 30 μL of cell lysate was transferred to white-walled plates. The luciferase intensity in each well was immediately measured via luminometer following auto-injection of 25 μL Luciferin substrate as per the Promega Firefly Luciferase Assay System. The timing parameters of photon measurements were optimized for this procedure.
as §1, with “The” for “U2OS_Luc705 and N2A_Luc705 cells were seeded in 96-well plates at 10,000 cells per well in growth media with 1 μM Luc705-SSO. The”

U2OS_Luc705 cells = experiment: as above; conditions: 2.5 μM compound, 1 μM SSO, FIG. 27
Experimental: as §1, §2
as §1, with “The” for “U2OS_Luc705 and N2A_Luc705 cells were seeded in 96-well plates at 10,000 cells per well in growth media with 1 μM Luc705-SSO. The”

[1] = test system: different cell lines (mCherry-GAL9); experiment: mCherry-GAL9 response between different cell lines; conditions: 0.31 to 10 μM, 2 hours post-dosing, FIG. 41 and 48
Experimental: All of the stable cell lines generated from HeLa and Huh7 cells were maintained and cultivated in Dulbecco's modified Eagle's medium (DMEM) with high glucose with GlutaMAX (Gibco, cat. no. 31966-021), 10% fetal bovine serum (gibco, cat. no. 10270-106), and 1% penicillin-streptomycin (gibco, cat. no. 15140-122) at 37° C., 5% CO2 in 95% humidity in T75 TC flask (Sarstedt, 83.3911.002). The cells were detached (trypsin 0.25% EDTA, 10 min) and passaged twice a week. HEK293 and HeLa, HepG2, Huh7 and U2OS mCherry-GAL9 cell lines were maintained in DMEM, NCI-H358 mCherry-GAL9 were maintained in RPMI (Gibco: 32430-027) and SH-SY5Y mCherry-GAL9 were maintained in DMEM/F12 (Gibco: 32430-027). All growth media was supplemented with 10% FBS and 1 μg/ml Puromycin (Gibco: A11138-03) to maintain reporter expression. All cells were routinely tested and mycoplasma negative.
HeLa and Huh7 cells were further submitted to the mCherry-GAL9-recruitment analysis with treatment with select compounds and observed for endosomal rupture at various time points (1 hour, 2 hours, and 16 hours). GAL9 response results at different doses (1.25-5 μM) of the selected compounds are shown in FIG. 33 (Huh7 cells) and FIG. 34 (HeLa cells). […] FIG. 40 further provides additional results comparing time (0.25 to 4 hours), dose of select compounds (0.31 to 10 μM) and GAL9 response in Huh7 cells. […]

HEK cells = experiment: Co-delivery of ABE8e base editor, GFP reporter; conditions: 50 nM ABE8e, Compound 4 concentrations above 2.5 μM, FIG. 46B
Experimental: The ABE8e base editor comprising SpCas9 D10A nickase and a modified TadA adenosine deaminase (Richter et al., Nature Biotechnol. 38:883-891 (2020)) was co-administered with Compound 4 to assess improvement in editing efficiency in an in vitro reporter system in which edited cells express GFP. […] The bar shading and lines showing total cell counts, viable cells, and edited cells are the same as in FIG. 43A.
HEK cells were co-administered with a fixed concentration (50 nM) of ABE8e and varying concentrations of AZ3327 (Compound 4). The results in FIG. 46B show greater than 90% editing efficiency at Compound 4 concentrations of above 2.5 μM.
HEK and N2a cells were co-administered with a fixed concentration (2.5 μM) of Compound 4 and varying concentrations of ABE8e.

mCherry-GAL9 cells = experiment: mCherry-GAL9 assay in live cells for 4 hours, screening; conditions: 5 μM (FIG. 6-8)
Experimental: Cells were subjected to a 10-point concentration dilution (0-15 μM) for 2 hours and then fixed and imaged (FIG. 3 and FIG. 4). Images were analyzed and curves were generated from both mCherry-GAL9 puncta quantitation and cell survival as determined by nuclear morphology (FIG. 5). The GAL9 recruitment response support the functional splice-switching data with SSOs, confirming the mCherry-GAL9 assay as a powerful tool for screening endosomolytic compounds and supporting the hypothesis that AZ2467 (Compound 6) and AZ4800 (Compound 2) promote SSO activity by inducing endosomal rupture. The GAL9 assay was again conducted, this time in live cells for 4 hours with select compounds for screening. Compounds were screened at 5 μM (FIG. 6-8) or 0.3125-10 μM (FIG. 35-38). FIG. 39 and FIG. 47 provide results for select compounds at various doses 0.3125-10 μM.

Row | Structure (SMILES) | activity of the oligo as compared to oligo only (N2A_Luc705 cells) | activity of the oligo as compared to oligo only (U2OS_Luc705 cells) | GAL9 response between different cell lines [1] | editing efficiency (HEK cells) | GAL9 recruitment, reason for selection for further characterization (mCherry-GAL9 cells)
1 | COc1nn(C2CCNCC2)cc1Nc1ncc(F)c(-n2ccc3c(C#N)cccc32)n1 [Compound 4] | enhanced activity of the oligo as compared to oligo only | enhanced activity of the oligo as compared to oligo only | GAL9 responses across multiple cell lines of diverse background origins | greater than 90% | –
2 | COc1nn(C2CCNCC2)cc1Nc1ncc(Cl)c(-n2ccc3c(C#N)cccc32)n1 [Compound 2] | – | – | – | – | efficacy at shorter-term timepoints
